Assay results reported in paper PMC3150642 (Journal of medicinal chemistry, 2011).

Key:
DPPH Antioxidant Test = settings: 5 μM test reagent, 500 μM DPPH
[1] = target: T1, Human platelet 12-lipoxygenase (12-LOX) (Homo sapiens, UniProt P18054); test: Lipoxygenase UV-Vis-based manual assay, 12-LOX; type: biochemical; settings: Triton X-100 from 0.005% to 0.02%
T1 sequence (P18054 1-663): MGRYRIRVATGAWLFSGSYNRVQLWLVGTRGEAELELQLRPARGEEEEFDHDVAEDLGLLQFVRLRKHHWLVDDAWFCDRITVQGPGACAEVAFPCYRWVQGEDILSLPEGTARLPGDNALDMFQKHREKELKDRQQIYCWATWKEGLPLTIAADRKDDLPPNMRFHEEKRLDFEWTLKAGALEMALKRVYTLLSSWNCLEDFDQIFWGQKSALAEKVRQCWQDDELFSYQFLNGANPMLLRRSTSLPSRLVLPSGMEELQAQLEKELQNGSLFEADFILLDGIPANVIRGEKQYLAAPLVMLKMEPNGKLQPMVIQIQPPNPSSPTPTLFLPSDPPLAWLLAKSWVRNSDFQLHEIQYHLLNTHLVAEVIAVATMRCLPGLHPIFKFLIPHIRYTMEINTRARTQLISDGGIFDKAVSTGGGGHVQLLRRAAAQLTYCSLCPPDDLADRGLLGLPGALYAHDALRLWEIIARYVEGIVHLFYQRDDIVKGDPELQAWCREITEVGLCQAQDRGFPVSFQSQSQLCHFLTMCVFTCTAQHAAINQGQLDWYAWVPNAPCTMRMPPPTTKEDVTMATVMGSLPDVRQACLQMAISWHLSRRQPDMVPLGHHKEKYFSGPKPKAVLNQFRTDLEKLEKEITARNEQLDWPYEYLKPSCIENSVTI

12-LOX in platelets = target: T2, 12-LOX in platelets (Homo sapiens, UniProt P18054); settings: 100 μM inhibitor, three separate experiments
T2 sequence (P18054 1-663): T1 sequence (P18054 1-663)

[2] = target: T3, 12-LOX in primary human islets (Homo sapiens, UniProt P18054); test: Inhibition of 12-HETE Production in Human Donor Islets; type: cell-based; settings: 10 μM, islets of two type 2 diabetic donors, AA + A23187
T3 sequence (P18054 1-663): T1 sequence (P18054 1-663)

change in IC50 with increasing Triton X-100 (aggregation test) [1]	inhibition of PAR1-AP-mediated 12-HETE production (12-LOX in platelets)	inhibition of stimulated 12-HETE production [2]	SMILES	reduction of DPPH (DPPH Antioxidant Test)
			CC(Cc1ccc(O)c(O)c1)C(C)Cc1ccc(O)c(O)c1 (centres unmarked) [NDGA, Nordihydroguaiaretic acid, reference compound]	Stoichiometric reduction of DPPH
negligible changes in the IC50			CC(=O)NC(c1cccs1)c1cc(Cl)c2cccnc2c1O (centres unmarked) [Compound 3, N-((5-chloro-8-hydroxyquinolin-7-yl)(thiophen-2-yl)methyl)acetamide]	
	significant inhibition	74%	CCC(=O)NC(c1cccs1)c1cc([N+](=O)[O-])c2cccnc2c1O (centres unmarked) [Compound 1, N-((8-hydroxy-5-nitroquinolin-7-yl)(thiophen-2-yl)methyl)propionamide]	no reduction of DPPH was observed
